{"source": "patent US7838495B2", "about": "“Compositions and methods of use of EPB1, and ErbB3 binding protein” (University of Maryland, Baltimore, priority 2007, dated 2010)", "key": {"AR": {"target": "AR (Homo sapiens, UniProt P10275, T878A)", "sequence (P10275 whole entry T878A)": "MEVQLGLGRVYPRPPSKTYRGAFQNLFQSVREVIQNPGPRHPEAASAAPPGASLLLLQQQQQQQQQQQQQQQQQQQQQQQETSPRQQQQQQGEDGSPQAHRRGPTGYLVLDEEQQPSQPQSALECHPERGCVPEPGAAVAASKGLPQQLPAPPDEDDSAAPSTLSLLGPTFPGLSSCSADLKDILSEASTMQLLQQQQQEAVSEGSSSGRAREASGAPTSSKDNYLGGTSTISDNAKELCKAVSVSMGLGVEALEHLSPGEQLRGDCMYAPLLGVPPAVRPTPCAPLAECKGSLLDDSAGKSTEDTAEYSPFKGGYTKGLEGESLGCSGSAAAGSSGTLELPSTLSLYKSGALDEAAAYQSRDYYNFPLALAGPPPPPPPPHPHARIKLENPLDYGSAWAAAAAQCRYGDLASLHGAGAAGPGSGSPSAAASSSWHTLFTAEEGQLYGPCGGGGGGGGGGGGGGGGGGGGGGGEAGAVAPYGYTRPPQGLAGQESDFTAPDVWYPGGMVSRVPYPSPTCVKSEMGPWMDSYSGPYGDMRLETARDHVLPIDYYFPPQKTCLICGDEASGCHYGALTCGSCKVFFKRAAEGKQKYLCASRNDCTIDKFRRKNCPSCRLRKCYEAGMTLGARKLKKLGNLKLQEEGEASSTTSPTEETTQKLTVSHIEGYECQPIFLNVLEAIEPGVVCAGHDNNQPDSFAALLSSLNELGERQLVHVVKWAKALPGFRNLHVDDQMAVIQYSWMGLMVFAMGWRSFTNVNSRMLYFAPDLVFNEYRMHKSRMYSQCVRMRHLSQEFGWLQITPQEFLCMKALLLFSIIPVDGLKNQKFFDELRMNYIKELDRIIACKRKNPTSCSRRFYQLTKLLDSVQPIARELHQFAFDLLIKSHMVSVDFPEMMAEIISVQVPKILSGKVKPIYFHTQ", "method": "Luciferase Reporter Assays: Vector control or EBP1-transfected LNCaP (5×10^4) cells were plated in twelve-well plates in complete media. When cells reached 50-60% confluence, they were transfected with 0.5 μg of MMTV-luc using the Fugene-6 reagent (Roche). Cells were also transfected with the RL-TK vector as an internal control. […] Luciferase activity was determined as previously described using a Dual-Luciferase kit (Promega, Madison, Wis.). The activities of renilla luciferase were used to normalize any variations in transfection efficiency. The promoter activities of each plasmid construct were calculated as the firefly-renilla luciferase activity ratios. All transfection experiments were carried out in triplicate wells and repeated three times."}, "[1]": {"system": "AR regulated MMTV promoter", "test": "MMTV-luciferase reporter response to R1881 in A16 and C13 cells", "format": "cell-based, human", "details": "EBP1 knock out cells vs A16, R1881 10^-8 M, p<0.05", "method": "FIG. 7A-C. Suppression of EBP1 by shRNA promotes a hormone refractory phenotype A. Western blot analysis of Ebp1. Lysates of LNCaP cells stably transduced with a control lentivirus (A16) or an EBP1 targeted shRNA (13C) were collected and resolved by SDS-PAGE. Western blots were probed for endogenous EBP1 or ACTIN as indicated. B. Inhibition of EBP1 expression abrogates the ability of HRG to arrest growth (Left panel) Control and shRNA EBP1 targeted cells were plated in complete media at […] for one day. The next day, cells were switched to steroid reduced-media and HRG added at the indicated concentrations. Total cell numbers were determined seven days later by MTT assay. Each point represents mean±S.E. of 6 wells. Data is representative of three experiments. (Right Panel) AKT phosphorylation in EBP1 knock out cells Control (A16) or EBP 1 knock out cells (C13) were treated with HRG (20 ng/ml) for 15 mm and cell lysates assessed for the presence of phospho and total AKT as indicated. C. […] Sixteen hours later, luciferase activity was measured. […] Lysates of logarithmically growing A16 and C13 cells were resolved by SDS-PAGE and analyzed by Western blotting using antibodies to AGR2 and ACTIN as indicated. […] The viability of the cells was determined by MTT assays 5 days later. […]"}}}
{"molecule": "C[C@]1(O)CC[C@H]2[C@@H]3CCC4=CC(=O)CCC4=C3C=C[C@@]21C", "note": "[R1881]", "values": [{"measurement": "AR activation (MMTV-luc)", "setting": "AR; LNCaP EPB1 transfectants", "value": "neither R1881 nor cyproterone acetate nor the combination thereof stimulated AR activation"}, {"measurement": "activation of MMTV-luc luciferase activity", "setting": "AR; LNCaP vector controls, 10^-8 M", "value": 20, "unit": "fold"}, {"measurement": "transcriptional response of AR regulated MMTV promoter to R1881", "setting": "[1]", "value": "enhanced"}]}
